Measured values from PMC9329436, “Optimization of the 4-anilinoquin(az)oline scaffold as epidermal growth factor receptor (EGFR) inhibitors for chordoma utilizing a toxicology profiling assay platform” (Scientific Reports, 2022).
Where two headings read alike, the source gives them in different places.

How the values were obtained:
Format in all cases: biochemical
[1] = target: T1, 320 wild-type protein kinases (Homo sapiens, UniProt Q8NE63); details: singlicate
T1 sequence (Q8NE63 1-616): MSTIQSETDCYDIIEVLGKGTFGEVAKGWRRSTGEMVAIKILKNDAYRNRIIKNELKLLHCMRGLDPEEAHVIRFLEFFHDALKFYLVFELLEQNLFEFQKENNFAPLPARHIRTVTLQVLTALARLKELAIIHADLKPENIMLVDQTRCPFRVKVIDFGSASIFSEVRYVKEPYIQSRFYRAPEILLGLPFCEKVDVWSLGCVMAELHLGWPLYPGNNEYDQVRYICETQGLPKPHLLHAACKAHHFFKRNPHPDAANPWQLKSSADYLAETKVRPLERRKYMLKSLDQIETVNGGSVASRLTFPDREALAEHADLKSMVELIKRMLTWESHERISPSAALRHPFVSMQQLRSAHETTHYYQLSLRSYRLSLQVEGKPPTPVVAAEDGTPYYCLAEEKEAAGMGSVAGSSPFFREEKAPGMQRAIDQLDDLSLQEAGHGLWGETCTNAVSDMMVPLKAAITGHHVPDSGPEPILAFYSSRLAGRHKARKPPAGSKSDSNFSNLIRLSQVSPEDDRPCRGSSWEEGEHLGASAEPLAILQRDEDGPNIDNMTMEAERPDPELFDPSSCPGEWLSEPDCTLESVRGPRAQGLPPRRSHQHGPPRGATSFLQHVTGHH
Source text: (§1) Table S4. Profiling of two compounds at two concentrations against 320 wild-type protein kinases; singlicate measurement; Residual activities (% of control).

[2] = target: 320 wild-type protein kinases (Homo sapiens, UniProt Q15418); details: kinase RPS6KA1, singlicate
Sequence of 320 wild-type protein kinases (Homo sapiens, UniProt Q15418) (Q15418 whole entry): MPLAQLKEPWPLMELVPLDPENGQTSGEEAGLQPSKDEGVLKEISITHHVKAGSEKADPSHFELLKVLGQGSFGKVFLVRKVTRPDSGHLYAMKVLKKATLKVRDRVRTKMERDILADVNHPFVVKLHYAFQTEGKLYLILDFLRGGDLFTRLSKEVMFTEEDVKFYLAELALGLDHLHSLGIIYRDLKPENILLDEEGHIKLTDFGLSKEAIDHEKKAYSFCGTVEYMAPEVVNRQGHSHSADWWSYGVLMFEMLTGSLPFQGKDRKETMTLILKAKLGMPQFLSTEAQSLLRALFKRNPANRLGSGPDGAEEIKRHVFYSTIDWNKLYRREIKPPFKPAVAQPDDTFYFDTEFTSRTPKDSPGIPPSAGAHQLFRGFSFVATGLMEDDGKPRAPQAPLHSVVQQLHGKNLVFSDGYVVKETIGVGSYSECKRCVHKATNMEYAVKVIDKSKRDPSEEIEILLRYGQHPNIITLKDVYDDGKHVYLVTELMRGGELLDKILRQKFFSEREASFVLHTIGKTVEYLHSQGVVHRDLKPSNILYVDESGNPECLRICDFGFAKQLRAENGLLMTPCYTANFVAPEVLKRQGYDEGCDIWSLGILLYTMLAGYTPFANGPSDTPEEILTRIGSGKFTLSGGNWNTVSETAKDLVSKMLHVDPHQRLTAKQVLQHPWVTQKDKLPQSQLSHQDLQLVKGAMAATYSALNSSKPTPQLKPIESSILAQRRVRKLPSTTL
Source text: as §1

[3] = target: T2, 320 wild-type protein kinases (Homo sapiens, UniProt O43318); details: singlicate
T2 sequence (O43318 1-606): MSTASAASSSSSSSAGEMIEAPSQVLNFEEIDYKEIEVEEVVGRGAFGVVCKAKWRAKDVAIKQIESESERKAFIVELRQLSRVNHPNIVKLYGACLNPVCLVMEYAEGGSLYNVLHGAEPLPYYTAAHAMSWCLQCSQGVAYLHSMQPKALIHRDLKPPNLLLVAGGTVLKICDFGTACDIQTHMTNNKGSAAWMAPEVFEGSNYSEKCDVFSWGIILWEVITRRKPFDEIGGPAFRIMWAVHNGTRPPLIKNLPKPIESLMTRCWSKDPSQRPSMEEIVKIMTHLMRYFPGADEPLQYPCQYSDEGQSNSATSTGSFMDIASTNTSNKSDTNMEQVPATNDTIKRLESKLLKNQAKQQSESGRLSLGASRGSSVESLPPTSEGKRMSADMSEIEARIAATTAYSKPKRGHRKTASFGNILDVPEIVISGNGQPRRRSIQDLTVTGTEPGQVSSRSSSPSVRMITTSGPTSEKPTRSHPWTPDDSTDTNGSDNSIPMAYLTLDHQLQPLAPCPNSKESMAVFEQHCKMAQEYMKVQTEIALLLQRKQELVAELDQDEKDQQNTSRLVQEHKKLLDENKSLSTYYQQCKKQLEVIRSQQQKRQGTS
Source text: as §1

[4] = target: 320 wild-type protein kinases (Homo sapiens, UniProt P23443); details: kinase S6K, singlicate
Sequence of 320 wild-type protein kinases (Homo sapiens, UniProt P23443) (P23443 whole entry): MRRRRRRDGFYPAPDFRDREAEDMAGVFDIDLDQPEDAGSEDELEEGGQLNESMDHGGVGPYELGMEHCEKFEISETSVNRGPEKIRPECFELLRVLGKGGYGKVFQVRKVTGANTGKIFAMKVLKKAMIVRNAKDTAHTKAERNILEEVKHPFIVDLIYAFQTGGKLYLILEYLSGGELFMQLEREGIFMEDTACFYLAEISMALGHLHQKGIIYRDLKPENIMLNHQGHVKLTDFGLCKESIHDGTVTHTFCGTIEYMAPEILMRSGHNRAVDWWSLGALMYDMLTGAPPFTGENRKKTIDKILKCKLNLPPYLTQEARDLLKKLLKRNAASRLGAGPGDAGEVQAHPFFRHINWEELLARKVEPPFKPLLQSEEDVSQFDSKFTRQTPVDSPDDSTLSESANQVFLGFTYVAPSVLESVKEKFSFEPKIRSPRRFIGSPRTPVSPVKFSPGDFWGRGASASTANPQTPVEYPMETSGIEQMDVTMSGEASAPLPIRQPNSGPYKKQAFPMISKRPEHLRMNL
Source text: as §1

[5] = target: T3, 320 wild-type protein kinases (Homo sapiens, UniProt P21709); details: singlicate
T3 sequence (P21709 26-976): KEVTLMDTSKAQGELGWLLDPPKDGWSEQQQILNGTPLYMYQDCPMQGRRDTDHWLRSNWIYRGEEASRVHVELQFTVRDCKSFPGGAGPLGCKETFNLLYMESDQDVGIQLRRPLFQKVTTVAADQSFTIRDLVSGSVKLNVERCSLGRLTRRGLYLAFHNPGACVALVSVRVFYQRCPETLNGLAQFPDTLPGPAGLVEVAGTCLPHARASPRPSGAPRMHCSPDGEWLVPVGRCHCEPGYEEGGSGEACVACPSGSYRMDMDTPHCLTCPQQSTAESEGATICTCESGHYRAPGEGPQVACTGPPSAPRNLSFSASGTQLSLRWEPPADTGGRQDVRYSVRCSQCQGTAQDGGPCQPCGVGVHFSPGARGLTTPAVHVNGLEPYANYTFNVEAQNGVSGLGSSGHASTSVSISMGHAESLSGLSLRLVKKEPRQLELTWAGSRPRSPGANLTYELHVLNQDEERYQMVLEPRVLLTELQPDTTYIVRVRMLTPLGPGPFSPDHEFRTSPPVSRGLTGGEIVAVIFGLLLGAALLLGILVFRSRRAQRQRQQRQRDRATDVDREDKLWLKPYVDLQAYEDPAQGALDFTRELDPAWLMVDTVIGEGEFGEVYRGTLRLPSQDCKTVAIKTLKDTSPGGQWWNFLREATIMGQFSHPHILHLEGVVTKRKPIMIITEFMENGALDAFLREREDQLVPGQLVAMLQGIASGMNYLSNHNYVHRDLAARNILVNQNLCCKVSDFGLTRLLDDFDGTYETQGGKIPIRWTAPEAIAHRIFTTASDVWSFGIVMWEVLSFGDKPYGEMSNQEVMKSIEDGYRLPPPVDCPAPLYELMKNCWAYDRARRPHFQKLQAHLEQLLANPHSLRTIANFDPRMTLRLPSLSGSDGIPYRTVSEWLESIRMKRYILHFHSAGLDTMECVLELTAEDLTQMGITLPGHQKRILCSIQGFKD
Source text: as §1

[6] = target: 320 wild-type protein kinases (Homo sapiens, UniProt P42685); details: FRK, singlicate
Sequence of 320 wild-type protein kinases (Homo sapiens, UniProt P42685) (P42685 whole entry): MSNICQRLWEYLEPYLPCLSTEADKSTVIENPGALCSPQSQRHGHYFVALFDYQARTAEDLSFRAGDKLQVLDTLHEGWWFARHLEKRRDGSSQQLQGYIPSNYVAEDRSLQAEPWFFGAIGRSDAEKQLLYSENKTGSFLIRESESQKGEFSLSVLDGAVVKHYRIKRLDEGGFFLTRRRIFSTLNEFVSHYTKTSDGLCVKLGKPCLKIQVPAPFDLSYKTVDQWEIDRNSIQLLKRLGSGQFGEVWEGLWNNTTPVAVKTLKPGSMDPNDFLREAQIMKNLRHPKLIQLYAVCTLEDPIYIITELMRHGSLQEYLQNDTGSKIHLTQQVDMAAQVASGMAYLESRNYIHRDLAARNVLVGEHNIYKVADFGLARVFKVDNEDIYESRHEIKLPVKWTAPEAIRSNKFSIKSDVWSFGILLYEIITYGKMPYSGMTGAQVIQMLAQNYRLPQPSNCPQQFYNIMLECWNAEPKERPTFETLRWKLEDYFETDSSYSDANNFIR
Source text: as §1

SMILES: C#Cc1cc(Nc2ncnc3cc(I)ccc23)ccc1Cl [Compound 41]
- Residual activity ([1]; HIPK4, 1.0E-06 M): 97 % of control
- Residual activity ([1]; HIPK4, 1.0E-07 M): 104 % of control
- Residual activity, RPS6KA1 ([2]; assay conc. 1.0E-06 M): 99 % of control
- Residual activity, RPS6KA1 ([2]; assay conc. 1.0E-07 M): 103 % of control
- Residual activity ([3]; MAP3K7/MAP3K7IP1, 1.0E-06 M): 87 % of control
- Residual activity ([3]; MAP3K7/MAP3K7IP1, 1.0E-07 M): 98 % of control
- Residual activity, S6K ([4]; assay conc. 1.0E-06 M): 123 % of control
- Residual activity, S6K ([4]; assay conc. 1.0E-07 M): 135 % of control
- Residual activity ([5]; EPHA1, 1.0E-06 M): 78 % of control
- Residual activity ([5]; EPHA1, 1.0E-07 M): 106 % of control
- Residual activity ([6]; 1.0E-06 M): 106 % of control
- Residual activity ([6]; 1.0E-07 M): 93 % of control

SMILES: C#Cc1cc(Nc2ncnc3cc(OC)c(OC)cc23)ccc1Cl [Compound 45]
- Residual activity ([1]; HIPK4, 1.0E-06 M): 57 % of control
- Residual activity ([1]; HIPK4, 1.0E-07 M): 98 % of control
- Residual activity, RPS6KA1 ([2]; assay conc. 1.0E-06 M): 74 % of control
- Residual activity, RPS6KA1 ([2]; assay conc. 1.0E-07 M): 88 % of control
- Residual activity ([3]; MAP3K7/MAP3K7IP1, 1.0E-06 M): 79 % of control
- Residual activity ([3]; MAP3K7/MAP3K7IP1, 1.0E-07 M): 81 % of control
- Residual activity, S6K ([4]; assay conc. 1.0E-06 M): 121 % of control
- Residual activity, S6K ([4]; assay conc. 1.0E-07 M): 122 % of control
- Residual activity ([5]; EPHA1, 1.0E-06 M): 80 % of control
- Residual activity ([5]; EPHA1, 1.0E-07 M): 91 % of control
- Residual activity ([6]; 1.0E-06 M): 74 % of control
- Residual activity ([6]; 1.0E-07 M): 96 % of control
